Source: ChEMBL document CHEMBL5465560, “Selectivity Literature for EUbOPEN Chemogenomic Library” (2024)

Experiments:
[1] = target: Death-associated protein kinase 1 (Homo sapiens, UniProt P53355); test: Selectivity interaction (KinomeScan (DiscoverX)) EUB0000229b DAPK1; settings: at 10 µM
[2] = target: T1, Serine/threonine-protein kinase DCLK2 (Homo sapiens) (UniProt Q8N568); test: Selectivity interaction (KinomeScan (DiscoverX)) EUB0000229b DCLK2; settings: at 10 µM
T1 sequence (whole entry): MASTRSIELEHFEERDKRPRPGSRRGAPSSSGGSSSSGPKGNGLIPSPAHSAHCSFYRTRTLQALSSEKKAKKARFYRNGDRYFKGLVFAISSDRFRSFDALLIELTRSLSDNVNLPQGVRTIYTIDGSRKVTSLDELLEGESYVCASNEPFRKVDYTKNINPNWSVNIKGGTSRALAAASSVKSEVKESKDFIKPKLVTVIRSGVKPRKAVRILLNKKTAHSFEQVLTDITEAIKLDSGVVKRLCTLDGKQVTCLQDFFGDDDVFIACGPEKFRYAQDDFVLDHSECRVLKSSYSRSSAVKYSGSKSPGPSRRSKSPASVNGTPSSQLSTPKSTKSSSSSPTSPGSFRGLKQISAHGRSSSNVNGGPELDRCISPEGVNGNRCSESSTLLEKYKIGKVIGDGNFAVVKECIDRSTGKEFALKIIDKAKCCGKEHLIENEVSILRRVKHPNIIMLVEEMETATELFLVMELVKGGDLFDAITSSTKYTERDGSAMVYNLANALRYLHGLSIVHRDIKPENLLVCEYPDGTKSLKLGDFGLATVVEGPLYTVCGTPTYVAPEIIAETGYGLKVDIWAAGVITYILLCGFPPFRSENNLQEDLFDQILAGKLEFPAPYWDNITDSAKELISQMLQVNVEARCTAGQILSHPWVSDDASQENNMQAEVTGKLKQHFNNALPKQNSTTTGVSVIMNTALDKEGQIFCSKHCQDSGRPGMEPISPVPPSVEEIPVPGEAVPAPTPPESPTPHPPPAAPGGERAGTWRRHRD

[3] = target: Dual specificity testis-specific protein kinase 1 (Homo sapiens) (UniProt Q15569); test: Selectivity interaction (KinomeScan (DiscoverX)) EUB0000655a TESK1; settings: at 10 µM
[4] = target: CDK2/Cyclin A2 (Homo sapiens) (UniProt P24941+P20248); test: (§1) Selectivity interaction (ProQinase) EUB0000171b CDK2; type: protein-complex assay
[5] = target: Cyclin-dependent kinase 2/cyclin E1 (Homo sapiens) (UniProt P24864+P24941); test: as §1; type: protein-complex assay
[6] = target: Platelet-derived growth factor receptor beta (Homo sapiens, UniProt P09619); test: Selectivity interaction (ProQinase) EUB0000171b PDGFRB
Platelet-derived growth factor receptor beta, sequence (P09619 whole entry): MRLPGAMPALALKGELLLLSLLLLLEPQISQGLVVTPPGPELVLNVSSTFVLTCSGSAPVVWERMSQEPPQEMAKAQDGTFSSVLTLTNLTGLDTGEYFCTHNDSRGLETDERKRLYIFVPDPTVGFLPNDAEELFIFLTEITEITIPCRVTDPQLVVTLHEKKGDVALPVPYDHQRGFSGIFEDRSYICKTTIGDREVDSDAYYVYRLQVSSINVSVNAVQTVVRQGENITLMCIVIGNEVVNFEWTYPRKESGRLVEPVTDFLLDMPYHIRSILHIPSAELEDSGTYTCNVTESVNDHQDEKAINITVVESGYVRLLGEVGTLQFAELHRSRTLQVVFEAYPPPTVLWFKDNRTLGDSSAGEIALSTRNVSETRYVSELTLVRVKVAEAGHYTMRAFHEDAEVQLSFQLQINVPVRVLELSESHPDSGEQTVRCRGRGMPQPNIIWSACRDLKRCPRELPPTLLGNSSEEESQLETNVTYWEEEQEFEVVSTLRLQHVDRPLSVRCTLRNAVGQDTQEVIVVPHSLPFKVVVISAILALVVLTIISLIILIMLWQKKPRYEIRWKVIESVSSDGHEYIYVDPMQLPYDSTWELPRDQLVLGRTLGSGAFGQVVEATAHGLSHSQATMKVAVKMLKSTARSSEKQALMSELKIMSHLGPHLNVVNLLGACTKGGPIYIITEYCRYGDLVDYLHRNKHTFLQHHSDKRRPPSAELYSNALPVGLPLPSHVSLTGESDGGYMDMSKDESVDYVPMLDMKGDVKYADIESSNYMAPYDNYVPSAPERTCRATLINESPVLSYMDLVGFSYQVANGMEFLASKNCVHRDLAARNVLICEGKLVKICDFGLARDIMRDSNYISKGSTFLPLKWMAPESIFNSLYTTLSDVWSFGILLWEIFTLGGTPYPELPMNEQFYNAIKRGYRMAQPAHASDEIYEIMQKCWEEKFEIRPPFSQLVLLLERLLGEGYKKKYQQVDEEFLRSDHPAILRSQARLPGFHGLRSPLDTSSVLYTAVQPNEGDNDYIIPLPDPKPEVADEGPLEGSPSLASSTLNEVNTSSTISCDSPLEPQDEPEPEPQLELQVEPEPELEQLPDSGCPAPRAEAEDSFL

[7] = system: Epidermal growth factor receptor (Homo sapiens), P00533 [UNDEFINED MUTATION]; test: Selectivity interaction (KinomeScan (DiscoverX)) EUB0001079a EGFR; settings: at 1 µM
Epidermal growth factor receptor (Homo sapiens), P00533 [UNDEFINED MUTATION], sequence (P00533 whole entry, looked up, change not shown): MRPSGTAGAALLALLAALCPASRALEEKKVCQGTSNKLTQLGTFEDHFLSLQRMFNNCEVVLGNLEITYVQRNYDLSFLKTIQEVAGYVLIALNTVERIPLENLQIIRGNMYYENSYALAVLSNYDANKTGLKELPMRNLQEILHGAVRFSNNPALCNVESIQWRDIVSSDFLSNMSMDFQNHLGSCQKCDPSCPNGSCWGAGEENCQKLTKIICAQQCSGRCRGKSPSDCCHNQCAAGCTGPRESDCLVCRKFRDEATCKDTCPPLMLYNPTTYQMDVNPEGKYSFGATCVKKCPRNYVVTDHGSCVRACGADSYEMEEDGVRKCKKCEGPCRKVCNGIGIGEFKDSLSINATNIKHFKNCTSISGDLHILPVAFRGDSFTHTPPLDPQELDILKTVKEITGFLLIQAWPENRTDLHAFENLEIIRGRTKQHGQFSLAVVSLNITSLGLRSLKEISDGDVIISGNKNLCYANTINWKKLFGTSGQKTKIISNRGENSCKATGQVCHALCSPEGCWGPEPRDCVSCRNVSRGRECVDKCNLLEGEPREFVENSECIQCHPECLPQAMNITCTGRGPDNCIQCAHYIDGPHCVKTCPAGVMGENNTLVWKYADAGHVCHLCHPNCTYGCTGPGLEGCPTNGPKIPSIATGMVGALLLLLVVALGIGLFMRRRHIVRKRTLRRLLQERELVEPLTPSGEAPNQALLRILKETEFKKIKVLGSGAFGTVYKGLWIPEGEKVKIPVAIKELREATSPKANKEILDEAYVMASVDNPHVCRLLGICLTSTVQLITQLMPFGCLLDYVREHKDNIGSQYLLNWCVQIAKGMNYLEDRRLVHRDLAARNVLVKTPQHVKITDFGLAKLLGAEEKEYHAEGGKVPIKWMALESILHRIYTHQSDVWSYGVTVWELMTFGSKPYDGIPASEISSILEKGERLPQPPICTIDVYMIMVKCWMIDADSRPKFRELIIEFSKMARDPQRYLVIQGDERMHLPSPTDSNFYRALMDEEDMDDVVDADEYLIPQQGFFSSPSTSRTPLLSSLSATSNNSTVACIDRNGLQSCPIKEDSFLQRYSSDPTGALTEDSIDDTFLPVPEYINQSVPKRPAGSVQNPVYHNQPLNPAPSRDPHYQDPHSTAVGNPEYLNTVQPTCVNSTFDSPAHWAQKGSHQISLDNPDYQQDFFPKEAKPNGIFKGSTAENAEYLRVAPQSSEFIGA

[8] = target: Phosphatidylinositol 3-kinase catalytic subunit type 3 (Homo sapiens, UniProt Q8NEB9); test: Selectivity interaction (KinomeScan (DiscoverX)) EUB0001079a PIK3C3; settings: at 1 µM
Phosphatidylinositol 3-kinase catalytic subunit type 3, sequence (Q8NEB9 whole entry): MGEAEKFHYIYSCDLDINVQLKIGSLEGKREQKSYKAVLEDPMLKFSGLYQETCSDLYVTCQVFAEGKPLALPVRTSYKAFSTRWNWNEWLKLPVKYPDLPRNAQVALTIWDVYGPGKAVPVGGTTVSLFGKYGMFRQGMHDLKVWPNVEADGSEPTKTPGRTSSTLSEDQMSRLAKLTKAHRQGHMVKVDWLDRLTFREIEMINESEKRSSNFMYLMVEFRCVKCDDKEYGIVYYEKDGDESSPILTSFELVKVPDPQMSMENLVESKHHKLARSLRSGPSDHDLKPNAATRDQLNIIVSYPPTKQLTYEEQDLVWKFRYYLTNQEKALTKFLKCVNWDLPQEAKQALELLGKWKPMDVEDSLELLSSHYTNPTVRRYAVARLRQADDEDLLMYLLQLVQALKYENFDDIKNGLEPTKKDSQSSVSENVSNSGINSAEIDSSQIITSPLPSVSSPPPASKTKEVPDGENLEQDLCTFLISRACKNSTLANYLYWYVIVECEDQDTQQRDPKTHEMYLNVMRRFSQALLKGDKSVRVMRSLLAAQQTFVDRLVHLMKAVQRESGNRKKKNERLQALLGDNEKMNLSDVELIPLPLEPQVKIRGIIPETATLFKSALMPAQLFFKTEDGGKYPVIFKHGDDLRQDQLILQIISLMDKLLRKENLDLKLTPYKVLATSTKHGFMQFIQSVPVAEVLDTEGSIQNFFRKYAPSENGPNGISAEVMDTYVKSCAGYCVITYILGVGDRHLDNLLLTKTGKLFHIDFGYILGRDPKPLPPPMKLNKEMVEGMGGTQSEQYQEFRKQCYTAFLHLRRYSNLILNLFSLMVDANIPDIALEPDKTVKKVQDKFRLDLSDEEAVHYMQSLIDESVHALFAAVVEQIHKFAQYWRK

[9] = target: Mitogen-activated protein kinase 8 (Homo sapiens, UniProt P45983); test: Selectivity interaction (Kinase panel (KiNativ target engagement assay in Jurkat cells)) EUB0001635a MAPK8; type: cell-based; settings: at 1 µM
Mitogen-activated protein kinase 8, sequence (P45983 whole entry): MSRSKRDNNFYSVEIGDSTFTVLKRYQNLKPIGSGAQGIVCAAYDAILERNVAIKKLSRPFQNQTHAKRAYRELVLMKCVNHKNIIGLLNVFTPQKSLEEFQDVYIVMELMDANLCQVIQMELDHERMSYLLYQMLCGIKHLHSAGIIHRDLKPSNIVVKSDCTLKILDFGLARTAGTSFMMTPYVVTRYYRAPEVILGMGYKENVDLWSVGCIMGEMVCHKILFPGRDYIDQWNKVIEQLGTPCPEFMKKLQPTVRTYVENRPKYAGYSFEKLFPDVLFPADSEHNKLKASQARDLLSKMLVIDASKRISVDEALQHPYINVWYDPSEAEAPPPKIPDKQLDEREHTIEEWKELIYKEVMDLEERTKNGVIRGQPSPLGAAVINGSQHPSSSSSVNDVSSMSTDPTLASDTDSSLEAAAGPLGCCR

[10] = target: T1, Serine/threonine-protein kinase DCLK2 (Homo sapiens); test: Selectivity interaction (KinomeScan (DiscoverX)) EUB0000666a DCLK2; settings: at 10 µM
[11] = target: Phosphatidylinositol 4-kinase beta (Homo sapiens, UniProt Q9UBF8); test: Selectivity interaction (KinomeScan (DiscoverX)) EUB0000666a PI4KB; settings: at 10 µM
Phosphatidylinositol 4-kinase beta, sequence (Q9UBF8 2-816 limits assumed): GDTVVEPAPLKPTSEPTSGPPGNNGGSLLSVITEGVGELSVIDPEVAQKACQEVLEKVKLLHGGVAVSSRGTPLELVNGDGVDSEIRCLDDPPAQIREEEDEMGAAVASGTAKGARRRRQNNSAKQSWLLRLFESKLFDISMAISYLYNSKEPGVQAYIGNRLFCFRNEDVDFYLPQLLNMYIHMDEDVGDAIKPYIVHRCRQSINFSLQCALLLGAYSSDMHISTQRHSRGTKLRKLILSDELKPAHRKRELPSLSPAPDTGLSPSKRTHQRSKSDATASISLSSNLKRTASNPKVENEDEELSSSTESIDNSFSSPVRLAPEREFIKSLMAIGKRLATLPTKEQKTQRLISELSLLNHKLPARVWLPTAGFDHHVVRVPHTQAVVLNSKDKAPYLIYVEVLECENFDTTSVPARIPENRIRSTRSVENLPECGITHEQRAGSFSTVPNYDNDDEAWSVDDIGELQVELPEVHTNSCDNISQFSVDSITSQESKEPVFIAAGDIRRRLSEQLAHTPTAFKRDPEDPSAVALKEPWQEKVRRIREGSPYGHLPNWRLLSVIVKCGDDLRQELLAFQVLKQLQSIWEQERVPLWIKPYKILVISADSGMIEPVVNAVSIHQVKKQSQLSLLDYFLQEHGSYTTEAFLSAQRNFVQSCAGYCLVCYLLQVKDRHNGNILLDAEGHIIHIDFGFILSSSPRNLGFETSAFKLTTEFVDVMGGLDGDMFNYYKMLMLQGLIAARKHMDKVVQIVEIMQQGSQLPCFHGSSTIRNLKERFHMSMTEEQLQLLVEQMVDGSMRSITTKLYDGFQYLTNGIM

[12] = target: T2, Serine/threonine-protein kinase greatwall (Homo sapiens) (UniProt Q96GX5); test: Selectivity interaction (ActivX KiNativ screen (kinase selectivity in THP-1 cell lysates)) EUB0000639a MASTL; type: subcellular; settings: lysate, at 0.01 µM
T2 sequence (whole entry): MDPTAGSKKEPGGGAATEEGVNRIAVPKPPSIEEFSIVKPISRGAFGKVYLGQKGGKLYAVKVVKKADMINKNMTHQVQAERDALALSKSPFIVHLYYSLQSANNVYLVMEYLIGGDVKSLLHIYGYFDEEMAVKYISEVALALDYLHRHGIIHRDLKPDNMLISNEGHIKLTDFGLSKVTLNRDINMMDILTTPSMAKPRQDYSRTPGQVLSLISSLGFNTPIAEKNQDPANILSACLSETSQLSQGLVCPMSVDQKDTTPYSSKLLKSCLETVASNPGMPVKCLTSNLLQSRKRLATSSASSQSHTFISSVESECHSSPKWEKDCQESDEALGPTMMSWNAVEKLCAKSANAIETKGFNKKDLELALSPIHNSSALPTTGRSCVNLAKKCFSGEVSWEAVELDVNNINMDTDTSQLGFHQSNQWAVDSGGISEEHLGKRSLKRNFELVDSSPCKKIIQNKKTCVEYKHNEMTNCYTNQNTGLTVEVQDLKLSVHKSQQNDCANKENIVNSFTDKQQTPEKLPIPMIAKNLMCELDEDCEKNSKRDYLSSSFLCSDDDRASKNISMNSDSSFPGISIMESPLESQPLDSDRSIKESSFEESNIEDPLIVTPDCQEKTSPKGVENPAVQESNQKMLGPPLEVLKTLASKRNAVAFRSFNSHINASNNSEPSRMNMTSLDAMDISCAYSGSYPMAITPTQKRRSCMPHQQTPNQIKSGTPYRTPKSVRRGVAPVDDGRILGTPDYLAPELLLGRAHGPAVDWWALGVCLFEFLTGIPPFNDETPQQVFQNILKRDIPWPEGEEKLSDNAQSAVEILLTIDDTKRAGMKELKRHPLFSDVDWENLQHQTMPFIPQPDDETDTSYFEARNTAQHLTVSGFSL

[13] = target: Protein kinase C eta type (Homo sapiens) (UniProt P24723); test: Selectivity interaction (KinomeScan (DiscoverX)) EUB0000607a PRKCH; settings: at 10 µM
[14] = target: Tyrosine-protein kinase Lyn (Homo sapiens, UniProt P07948); test: Selectivity interaction (KinomeScan (DiscoverX)) EUB0000045b LYN
Tyrosine-protein kinase Lyn, sequence (P07948 2-512 limits assumed): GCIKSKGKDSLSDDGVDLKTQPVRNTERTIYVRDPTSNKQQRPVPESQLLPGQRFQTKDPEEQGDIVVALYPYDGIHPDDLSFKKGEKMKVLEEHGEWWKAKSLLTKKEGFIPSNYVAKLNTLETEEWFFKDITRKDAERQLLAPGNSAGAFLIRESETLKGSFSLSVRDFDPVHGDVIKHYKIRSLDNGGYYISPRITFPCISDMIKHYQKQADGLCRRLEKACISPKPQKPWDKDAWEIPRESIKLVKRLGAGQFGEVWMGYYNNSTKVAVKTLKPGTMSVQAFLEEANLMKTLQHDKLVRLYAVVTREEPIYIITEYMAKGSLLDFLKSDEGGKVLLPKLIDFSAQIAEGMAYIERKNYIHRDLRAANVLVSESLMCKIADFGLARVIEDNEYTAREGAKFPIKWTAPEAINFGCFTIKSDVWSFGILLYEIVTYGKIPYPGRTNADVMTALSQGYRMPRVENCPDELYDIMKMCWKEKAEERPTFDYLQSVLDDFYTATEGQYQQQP

[15] = target: Tyrosine-protein kinase BTK (Homo sapiens, UniProt Q06187); test: Selectivity interaction (Kinase panel (literature)) EUB0001199aCl BTK; settings: at 1 µM
[16] = target: cAMP-dependent protein kinase catalytic subunit alpha (Homo sapiens, UniProt P17612); test: Selectivity interaction (Kinase panel (literature)) EUB0001199aCl PRKACA; settings: at 1 µM

## COc1cc(N(C)c2ccnc3ccc(C(F)(F)F)cc23)cc(OC)c1OC
[1]
  % binding: 94%
[2]
  % binding: 100%

## CN(C)CCOc1ccc(-c2nc(-c3ccncc3)c(-c3ccc4c(c3)CC/C4=N\O)[nH]2)cc1
[3]
  % of control: 76%

## C=CC(=O)Nc1cccc(C(=O)Nc2ccc(Nc3cc(-c4[nH]c(SC)nc4C)ccn3)cc2)c1
[4]; at 1 µM
  % of control: 78%
[4]; at 5 µM
  % of control: 56%
[5]; at 1 µM
  % of control: 88%
[5]; at 5 µM
  % of control: 62%
[6]; at 1 µM
  % of control: 74%
[6]; at 5 µM
  % of control: 46%

## Nc1cnc(N2CCc3cc(S(=O)(=O)Nc4c(F)cc(Cl)cc4F)cc(N4CCCC4=O)c32)nc1 [TP-020n]
[7]
  % of control: 100%
[8]
  % of control: 100%

## C=CC(=O)Nc1ccc(C(=O)Nc2[nH]nc3c2CN(C(=O)N[C@H](CN(C)C)c2ccccc2)C3(C)C)cc1
[9]
  % of engagement: -7.2%

## O=C(NOC[C@H](O)CO)c1ccc(F)c(F)c1Nc1ccc(I)cc1F
[10]
  % of control: 100%
[11]
  % of control: 100%

## CC[C@@H]1[C@H](F)C(=O)N[C@@H]1COc1nccc2cc(C(N)=O)c(OC)cc12 [ZIMLOVISERTIB]
[12]
  % of inhibition: 16.1%

## CNC(=O)Nc1ccc(-c2nc(N3CC4CCC(C3)O4)c3cnn(C4CCC5(CC4)OCCO5)c3n2)cc1
[13]
  % of control: 91%

## C=CC(=O)Nc1cc(-n2c(=O)ccc3cnc4ccc(-c5ccc(NS(C)(=O)=O)cc5)cc4c32)ccc1C
[14]; at 1 µM
  % of control: 92%
[14]; at 10 µM
  % of control: 91%

## CN1Cc2nccc(-c3cn(C)nc3-c3ccc(F)cc3)c2C1=O
[15]
  % of inhibition: 2%
[16]
  % of inhibition: 2%
